The results in this text go back to ChEMBL document CHEMBL4834451, “Anti-chronic myeloid leukemia activity and quantitative structure-activity relationship of novel thiazole aminobenzamide derivatives” (Bioorg Med Chem Lett, 2021).

The subject of one experiment is K562. The experiment can be described thus: Antiproliferative activity against human K562 cells by MTS assay. The experiment is classed as functional, cell-based.
Experiment [1] is described as follows: Antiproliferative activity against imatinib-resistant human K562R cells by MTS assay. Format: functional, cell-based.
The test system of a further experiment is BaF3. The experiment can be described thus: Antiproliferative activity against mouse BaF3 cells harbouring BCR-ABL T315I mutant by MTS assay. Format: cell-based.
The subject of a further experiment is L02. The experiment can be described thus: Antiproliferative activity against human L02 cells by MTS assay. Format: cell-based.
[2] abbreviates: K562, read-out: pIC50 (converted).

The structures appear in SMILES notation. A value given as a limit tells only on which side of the number the result lay.

With `Cc1sc(Nc2cccc(C(=O)NCC(=O)O)c2)nc1-c1ccc(F)cc1`, the IC50 is 87.8 µM with K562; greater than 100 µM in experiment [1] (K562, read-out: IC50); greater than 64 µM in the experiment with BaF3; greater than 100 µM with L02.
Take `CCc1sc(Nc2cccc(C(=O)NCC(=O)O)c2)nc1-c1ccc(Cl)cc1`: the IC50 in the experiment with K562 was greater than 100 µM; in experiment [1] (K562, read-out: IC50) it was greater than 100 µM; in the experiment on L02, greater than 100 µM.
Take `Cc1sc(Nc2cccc(C(=O)N[C@@H](Cc3ccccc3)C(=O)O)c2)nc1-c1ccc(C(F)(F)F)cc1`: the IC50 was 44.1 µM with K562; 78.1 µM in experiment [1] (K562, read-out: IC50); 78.2 µM in experiment [1] (setting [2]); greater than 100 µM with L02.
The like results for `CC(=O)[C@H](Cc1ccccc1)NC(=O)c1cccc(Nc2nc(-c3ccc(C)cc3)c(C)s2)c1` were, in that order, 83.6 µM, 14.7 µM, 14.7 µM and greater than 100 µM.
On to `Cc1ccc(-c2nc(Nc3cccc(C(=O)NCC(=O)O)c3)sc2C)cc1`, for which the IC50 is greater than 100 µM with K562; greater than 100 µM in experiment [1] (K562, read-out: IC50); greater than 100 µM in the experiment with L02.
Take `CC(=O)[C@H](Cc1ccccc1)NC(=O)c1cccc(Nc2nc(-c3ccc(F)cc3)c(C)s2)c1`: the IC50 is 28.6 µM in the experiment on K562; 12.8 µM in experiment [1] (K562, read-out: IC50); 12.9 µM in experiment [1] (setting [2]); 19.1 µM in the experiment on BaF3; greater than 100 µM in the experiment on L02.
For `Cc1sc(Nc2cccc(C(=O)N[C@@H](Cc3ccccc3)C(=O)O)c2)nc1-c1ccc(F)cc1`, the IC50 with K562 is 79.5 µM; in experiment [1] (K562, read-out: IC50), 41.3 µM; in experiment [1] (setting [2]) it was 41.3 µM; with L02, greater than 100 µM.
As for `CC(=O)CNC(=O)c1cccc(Nc2nc(-c3ccc(C)cc3)c(C)s2)c1`, the IC50 in the experiment with K562 was greater than 100 µM; in experiment [1] (K562, read-out: IC50), 50.2 µM; in experiment [1] (setting [2]) it was 50.2 µM; in the experiment with L02 it was greater than 100 µM.
`Cc1sc(Nc2cccc(C(=O)NCC(=O)O)c2)nc1-c1ccccc1`: the IC50 in the experiment on K562 is 57.6 µM; in experiment [1] (K562, read-out: IC50), 61.7 µM; in experiment [1] (setting [2]), 61.7 µM; with L02, greater than 100 µM.
In the case of `Cc1sc(Nc2cccc(C(=O)N[C@@H](Cc3ccccc3)C(=O)O)c2)nc1-c1ccc(Cl)cc1`, the IC50 is 51 µM with K562; 48.1 µM in experiment [1] (K562, read-out: IC50); 48.1 µM in experiment [1] (setting [2]); greater than 100 µM in the experiment on L02.
Regarding `Cc1sc(Nc2cccc(C(=O)N[C@@H](Cc3ccccc3)C(=O)O)c2)nc1-c1ccccc1`, the IC50 with K562 is 66 µM; in experiment [1] (K562, read-out: IC50), 86.8 µM; in experiment [1] (setting [2]), 86.9 µM; in the experiment on L02 it was greater than 100 µM.
As for `CCc1sc(Nc2cccc(C(=O)N[C@@H](Cc3ccccc3)C(C)=O)c2)nc1-c1ccc(Cl)cc1`, the IC50 in the experiment with K562 is greater than 100 µM; in experiment [1] (K562, read-out: IC50) it was 15.9 µM; in experiment [1] (setting [2]), 15.9 µM; in the experiment on L02, greater than 100 µM.
In the case of `Cc1sc(Nc2cccc(C(=O)NCC(=O)O)c2)nc1-c1ccc(O)cc1`, the IC50 in the experiment on K562 was 71.8 µM; in experiment [1] (K562, read-out: IC50), greater than 100 µM; in the experiment on L02 it was greater than 100 µM.
With `Cc1sc(Nc2cccc(C(=O)NCC(=O)O)c2)nc1-c1ccc(C(F)(F)F)cc1`, the IC50 is 34.8 µM in the experiment on K562; greater than 100 µM in experiment [1] (K562, read-out: IC50); greater than 64 µM with BaF3; greater than 100 µM with L02.
With `CC(=O)[C@H](Cc1ccccc1)NC(=O)c1cccc(Nc2nc(-c3ccc(Cl)cc3)c(C)s2)c1`, the IC50 was 51.4 µM in the experiment with K562; 11.3 µM in experiment [1] (K562, read-out: IC50); 11.4 µM in experiment [1] (setting [2]); greater than 100 µM in the experiment with L02.
The like results for `Cc1sc(Nc2cccc(C(=O)N[C@@H](Cc3ccccc3)C(=O)O)c2)nc1-c1ccc(O)cc1` were, in that order, 68.9 µM, 62.9 µM, 63 µM and greater than 100 µM.
The like results for `CCc1sc(Nc2cccc(C(=O)N[C@@H](Cc3ccccc3)C(=O)O)c2)nc1-c1ccccc1` were, in that order, 93.3 µM, 78 µM, 78 µM and greater than 100 µM.
The like results for `CC(=O)CNC(=O)c1cccc(Nc2nc(-c3ccc(C(F)(F)F)cc3)c(C)s2)c1` were, in that order, 40.9 µM, 35.4 µM, 35.4 µM and greater than 100 µM.
`CCc1sc(Nc2cccc(C(=O)NCC(C)=O)c2)nc1-c1ccc(Cl)cc1`: the IC50 with K562 was greater than 100 µM; in experiment [1] (K562, read-out: IC50) it was greater than 100 µM; in the experiment with L02, greater than 100 µM.
Consider `CC(=O)CNC(=O)c1cccc(Nc2nc(-c3ccc(O)cc3)c(C)s2)c1`, for which the IC50 was 66.3 µM with K562; 68.3 µM in experiment [1] (K562, read-out: IC50); 68.2 µM in experiment [1] (setting [2]); greater than 64 µM in the experiment on BaF3; greater than 100 µM in the experiment on L02.
With `CC(=O)CNC(=O)c1cccc(Nc2nc(-c3ccccc3)c(C)s2)c1`, the IC50 is greater than 100 µM in the experiment with K562; greater than 100 µM in experiment [1] (K562, read-out: IC50); greater than 100 µM with L02.
In the case of `CC(=O)[C@H](Cc1ccccc1)NC(=O)c1cccc(Nc2nc(-c3ccc(O)cc3)c(C)s2)c1`, the IC50 is 8.32 µM in the experiment with K562; 7.31 µM in experiment [1] (K562, read-out: IC50); 7.31 µM in experiment [1] (setting [2]); 36.6 µM in the experiment with BaF3; greater than 100 µM in the experiment on L02.
On to `Cc1sc(Nc2cccc(C(=O)NCC(=O)O)c2)nc1-c1ccc(Cl)cc1`, for which the IC50 in the experiment on K562 is 60.5 µM; in experiment [1] (K562, read-out: IC50) it was 71.5 µM; in experiment [1] (setting [2]) it was 71.4 µM; in the experiment with L02, greater than 100 µM.
For `CCc1sc(Nc2cccc(C(=O)N[C@@H](Cc3ccccc3)C(=O)O)c2)nc1-c1ccc(Cl)cc1`, the IC50 in the experiment on K562 is greater than 100 µM; in experiment [1] (K562, read-out: IC50) it was greater than 100 µM; with L02, greater than 100 µM.
For `CC(=O)[C@H](Cc1ccccc1)NC(=O)c1cccc(Nc2nc(-c3ccccc3)c(C)s2)c1`, the IC50 with K562 is 53.1 µM; in experiment [1] (K562, read-out: IC50), 30.2 µM; in experiment [1] (setting [2]), 30.2 µM; in the experiment on L02 it was greater than 100 µM.
As to `CCc1sc(Nc2cccc(C(=O)NCC(C)=O)c2)nc1-c1ccccc1`, the IC50 is 61.7 µM in the experiment with K562; 17.6 µM in experiment [1] (K562, read-out: IC50); 17.6 µM in experiment [1] (setting [2]); greater than 100 µM in the experiment on L02.
Consider `CCc1sc(Nc2cccc(C(=O)N[C@@H](Cc3ccccc3)C(C)=O)c2)nc1-c1ccccc1`, for which the IC50 is greater than 100 µM in the experiment on K562; 17.2 µM in experiment [1] (K562, read-out: IC50); 17.2 µM in experiment [1] (setting [2]); greater than 100 µM in the experiment on L02.
For the compound `CC(=O)CNC(=O)c1cccc(Nc2nc(-c3ccc(Cl)cc3)c(C)s2)c1`, the IC50 with K562 was greater than 100 µM; in experiment [1] (K562, read-out: IC50), greater than 100 µM; with L02 it was greater than 100 µM.
As to `CCc1sc(Nc2cccc(C(=O)NCC(=O)O)c2)nc1-c1ccccc1`, the IC50 with K562 was greater than 100 µM; in experiment [1] (K562, read-out: IC50), greater than 100 µM; in the experiment on L02, greater than 100 µM.
As to `CC(=O)[C@H](Cc1ccccc1)NC(=O)c1cccc(Nc2nc(-c3ccc(C(F)(F)F)cc3)c(C)s2)c1`, the IC50 with K562 was 28.7 µM; in experiment [1] (K562, read-out: IC50) it was 8.47 µM; in experiment [1] (setting [2]), 8.47 µM; in the experiment on BaF3 it was 19.8 µM; in the experiment with L02 it was greater than 100 µM.
Turning to `Cc1ccc(-c2nc(Nc3cccc(C(=O)N[C@@H](Cc4ccccc4)C(=O)O)c3)sc2C)cc1`, the IC50 in the experiment on K562 was 48.8 µM; in experiment [1] (K562, read-out: IC50), 63.4 µM; in experiment [1] (setting [2]) it was 63.4 µM; in the experiment with L02, greater than 100 µM.
Consider `CC(=O)CNC(=O)c1cccc(Nc2nc(-c3ccc(F)cc3)c(C)s2)c1`, for which the IC50 was greater than 100 µM in the experiment on K562; greater than 100 µM in experiment [1] (K562, read-out: IC50); greater than 100 µM with L02.
As for `Cc1ccc(NC(=O)c2ccc(CN3CCN(C)CC3)cc2)cc1Nc1nccc(-c2cccnc2)n1` [IMATINIB], the IC50 was 4.63 µM in the experiment with K562; greater than 100 µM in experiment [1] (K562, read-out: IC50); greater than 100 µM in the experiment on L02.
